Experimental data from ChEMBL document CHEMBL1201861, “Genomics of Drug Sensitity in Cancer screening data, Wellcome Trust Sanger Institute”.

Assays:
Test in all cases: cells
[1] = system: Calu-6; format: functional, cell-based, Homo sapiens; conditions: Homo sapiens, Calu-6;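 also: growth of human Calu-6 cells, read out by a cell viability assay, IC50 marking inhibition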
Description: SANGER: Inhibition of human Calu-6 cell growth in a cell viability assay.

[2] = system: D-336MG; format: functional, cell-based, Homo sapiens; conditions: Homo sapiens, D-336MG
Description: SANGER: Inhibition of human D-336MG cell growth in a cell viability assay.

[3] = system: DB; format: functional, cell-based; conditions: Homo sapiens
Description: SANGER: Inhibition of human DB cell growth in a cell viability assay.

[4] = system: EFO-21; format: functional, cell-based, Homo sapiens; conditions: Homo sapiens, EFO-21;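 also: growth inhibition of EFO-21 cells measured with a viability assay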
Description: SANGER: Inhibition of human EFO-21 cell growth in a cell viability assay.

[5] = system: EFO-27; format: functional, cell-based, Homo sapiens; conditions: Homo sapiens, EFO-27;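 also: growth inhibition of EFO-27 cells, read out with a cell viability assay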
Description: SANGER: Inhibition of human EFO-27 cell growth in a cell viability assay.

[6] = system: ETK-1; format: functional, cell-based, Homo sapiens; conditions: Homo sapiens, ETK-1;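 also: growth inhibition of human ETK-1 cells, read out with a cell viability assay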
Description: SANGER: Inhibition of human ETK-1 cell growth in a cell viability assay.

[7] = system: EW-16; format: functional, cell-based, Homo sapiens; conditions: Homo sapiens, EW-16;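 also: growth inhibition of human EW-16 cells, read out as cell viability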
Description: SANGER: Inhibition of human EW-16 cell growth in a cell viability assay.

[8] = system: GB-1; format: functional, cell-based, Homo sapiens; conditions: Homo sapiens, GB-1;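 also: growth of GB-1 cells judged by a viability assay, IC50 marks the concentration inhibiting growth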
Description: SANGER: Inhibition of human GB-1 cell growth in a cell viability assay.

[9] = system: HLE; format: functional, cell-based, Homo sapiens; conditions: Homo sapiens, HLE;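 also: growth inhibition of human HLE cells, read out by a cell viability assay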
Description: SANGER: Inhibition of human HLE cell growth in a cell viability assay.

[10] = system: IGROV-1; format: functional, cell-based, Homo sapiens; conditions: Homo sapiens, IGROV-1;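 also: reduction of IGROV-1 cell growth, read out with a viability assay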
Description: SANGER: Inhibition of human IGROV-1 cell growth in a cell viability assay.

[11] = system: KGN; format: functional, cell-based, Homo sapiens; conditions: Homo sapiens, KGN;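 also: growth inhibition of KGN cells, read out with a cell viability assay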
Description: SANGER: Inhibition of human KGN cell growth in a cell viability assay.

[12] = system: KNS-81-FD; format: functional, cell-based, Homo sapiens; conditions: Homo sapiens, KNS-81-FD;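 also: growth inhibition of KNS-81-FD cells, read out with a cell viability assay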
Description: SANGER: Inhibition of human KNS-81-FD cell growth in a cell viability assay.

[13] = system: KYSE-510; format: functional, cell-based, Homo sapiens; conditions: Homo sapiens, KYSE-510;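 also: cell viability readout used to measure how strongly growth of the cell line is suppressed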
Description: SANGER: Inhibition of human KYSE-510 cell growth in a cell viability assay.

[14] = system: KYSE-70 cell line; format: functional, cell-based, Homo sapiens; conditions: Homo sapiens, KYSE-70;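 also: cell viability assay read-out, with IC50 expressing suppression of KYSE-70 cell growth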
Description: SANGER: Inhibition of human KYSE-70 cell growth in a cell viability assay.

[15] = system: LB771-HNC; format: functional, cell-based, Homo sapiens; conditions: Homo sapiens, LB771-HNC;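 also: growth inhibition of LB771-HNC human cells, read out with a cell viability assay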
Description: SANGER: Inhibition of human LB771-HNC cell growth in a cell viability assay.

[16] = system: LU-99A; format: functional, cell-based, Homo sapiens; conditions: Homo sapiens, LU-99A;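 also: growth inhibition of LU-99A cells, read out with a cell viability assay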
Description: SANGER: Inhibition of human LU-99A cell growth in a cell viability assay.

[17] = system: MC116; format: functional, cell-based; conditions: Homo sapiens;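 also: growth inhibition of MC116 cells, read out with a cell viability assay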
Description: SANGER: Inhibition of human MC116 cell growth in a cell viability assay.

[18] = system: MDA-MB-157; format: functional, cell-based, Homo sapiens; conditions: Homo sapiens, MDA-MB-157
Description: SANGER: Inhibition of human MDA-MB-157 cell growth in a cell viability assay.

[19] = system: MEL-HO; format: functional, cell-based, Homo sapiens; conditions: Homo sapiens, MEL-HO
Description: SANGER: Inhibition of human MEL-HO cell growth in a cell viability assay.

[20] = system: MKN-1; format: functional, cell-based, Homo sapiens; conditions: Homo sapiens, MKN-1;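 also: growth inhibition of human MKN1 cells, read out by a cell viability measurement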
Description: SANGER: Inhibition of human MKN1 cell growth in a cell viability assay.

[21] = system: MeWo; format: functional, cell-based, Homo sapiens; conditions: Homo sapiens, MeWo;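 also: growth inhibition of MeWo cells, determined by a cell viability readout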
Description: SANGER: Inhibition of human Mewo cell growth in a cell viability assay.

[22] = system: NB12; format: functional, cell-based, Homo sapiens; conditions: Homo sapiens, NB12;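 also: growth inhibition of human NB12 cells, read out by a cell viability assay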
Description: SANGER: Inhibition of human NB12 cell growth in a cell viability assay.

[23] = system: NB14; format: functional, cell-based; conditions: Homo sapiens;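 also: growth inhibition of NB14 cells measured with a cell viability assay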
Description: SANGER: Inhibition of human NB14 cell growth in a cell viability assay.

[24] = system: NCI-H1299; format: functional, cell-based, Homo sapiens; conditions: Homo sapiens, NCI-H1299;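 also: growth inhibition of human NCI-H1299 cells, read out by a cell viability assay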
Description: SANGER: Inhibition of human NCI-H1299 cell growth in a cell viability assay.

[25] = system: NCI-H1437; format: functional, cell-based, Homo sapiens; conditions: Homo sapiens, NCI-H1437;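 also: growth inhibition of human NCI-H1437 cells, read out by a cell viability assay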
Description: SANGER: Inhibition of human NCI-H1437 cell growth in a cell viability assay.

[26] = system: NCI-H1581; format: functional, cell-based, Homo sapiens; conditions: Homo sapiens, NCI-H1581;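 also: cell growth inhibition read out by a viability assay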
Description: SANGER: Inhibition of human NCI-H1581 cell growth in a cell viability assay.

[27] = system: NCI-H1838; format: functional, cell-based, Homo sapiens; conditions: Homo sapiens, NCI-H1838;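 also: growth inhibition of NCI-H1838 cells, determined with a cell viability readout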
Description: SANGER: Inhibition of human NCI-H1838 cell growth in a cell viability assay.

[28] = system: NCI-H226; format: functional, cell-based, Homo sapiens; conditions: Homo sapiens, NCI-H226;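 also: cell viability read-out used to gauge growth inhibition of the cells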
Description: SANGER: Inhibition of human NCI-H226 cell growth in a cell viability assay.

[29] = system: SNU-5; format: functional, cell-based; conditions: Homo sapiens;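 also: cell viability readout used to measure growth inhibition in human NCI-SNU-5 cells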
Description: SANGER: Inhibition of human NCI-SNU-5 cell growth in a cell viability assay.

[30] = system: OAW-42; format: functional, cell-based, Homo sapiens; conditions: Homo sapiens, OAW-42;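 also: growth inhibition of OAW-42 cells, read out with a cell viability assay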
Description: SANGER: Inhibition of human OAW-42 cell growth in a cell viability assay.

[31] = system: OCI-AML2; format: functional, cell-based; conditions: Homo sapiens;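 also: growth inhibition of OCI-AML2 cells, read out with a cell viability assay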
Description: SANGER: Inhibition of human OCI-AML2 cell growth in a cell viability assay.

[32] = system: OVCAR-3; format: functional, cell-based, Homo sapiens; conditions: Homo sapiens, OVCAR-3;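 also: growth inhibition of human OVCAR-3 cells, determined by a cell viability assay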
Description: SANGER: Inhibition of human OVCAR-3 cell growth in a cell viability assay.

[33] = system: P30-OHK; format: functional, cell-based; conditions: Homo sapiens;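 also: growth inhibition of the P30-OHK cell line, read out with a cell viability assay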
Description: SANGER: Inhibition of human P30-OHK cell growth in a cell viability assay.

[34] = system: RXF 393; format: functional, cell-based; conditions: Homo sapiens;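 also: growth inhibition of human RXF 393 cells, read out with a cell viability assay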
Description: SANGER: Inhibition of human RXF393 cell growth in a cell viability assay.

[35] = system: Ramos-2G6-4C10; format: functional, cell-based; conditions: Homo sapiens;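 also: growth inhibition of the cell line, measured by a cell viability read-out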
Description: SANGER: Inhibition of human Ramos-2G6-4C10 cell growth in a cell viability assay.

[36] = system: SHP77; format: functional, cell-based, Homo sapiens, SHP-77; conditions: Homo sapiens, SHP77;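 also: growth inhibition of human SHP-77 cells measured by a cell viability assay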
Description: SANGER: Inhibition of human SHP-77 cell growth in a cell viability assay.

[37] = system: SJSA-1; format: functional, cell-based, Homo sapiens; conditions: Homo sapiens, SJSA-1;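 also: growth inhibition of human SJSA-1 cells, read out through a cell viability measurement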
Description: SANGER: Inhibition of human SJSA-1 cell growth in a cell viability assay.

[38] = system: SNB-75; format: functional, cell-based, Homo sapiens; conditions: Homo sapiens, SNB-75;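 also: cell viability assay measuring growth inhibition of human SNB-75 cells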
Description: SANGER: Inhibition of human SNB75 cell growth in a cell viability assay.

[39] = system: SNU-387; format: functional, cell-based, Homo sapiens; conditions: Homo sapiens, SNU-387
Description: SANGER: Inhibition of human SNU-387 cell growth in a cell viability assay.

[40] = system: SW948; format: functional, cell-based, Homo sapiens; conditions: Homo sapiens, SW948;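 also: growth inhibition of SW948 cells, read out with a cell viability assay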
Description: SANGER: Inhibition of human SW948 cell growth in a cell viability assay.

[41] = system: ACN; format: functional, cell-based, Homo sapiens; conditions: Homo sapiens, ACN;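 also: growth inhibition of the human ACN cell line, read out via cell viability testing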
Description: SANGER: Inhibition of human ACN cell growth in a cell viability assay.

[42] = system: AN3-CA; format: functional, cell-based; conditions: Homo sapiens;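 also: growth inhibition of human AN3-CA cells measured by a cell viability assay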
Description: SANGER: Inhibition of human AN3-CA cell growth in a cell viability assay.

[43] = system: BFTC-909; format: functional, cell-based, Homo sapiens; conditions: Homo sapiens, BFTC-909
Description: SANGER: Inhibition of human BFTC-909 cell growth in a cell viability assay.

[44] = system: BT-474; format: functional, cell-based, Homo sapiens; conditions: Homo sapiens, BT-474
Description: SANGER: Inhibition of human BT-474 cell growth in a cell viability assay.

[45] = system: C32; format: functional, cell-based, Homo sapiens; conditions: Homo sapiens, C32;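 also: cell viability assay, with IC50 reflecting inhibition of C32 cell growth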
Description: SANGER: Inhibition of human C32 cell growth in a cell viability assay.

[46] = system: TGBC1TKB; format: functional, cell-based, Homo sapiens; conditions: Homo sapiens, TGBC1TKB;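 also: growth inhibition of TGBC1TKB cells, read out by a cell viability assay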
Description: SANGER: Inhibition of human TGBC1TKB cell growth in a cell viability assay.

[47] = system: U2OS; format: functional, cell-based, Homo sapiens, U-2-OS; conditions: Homo sapiens, U2OS;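 also: growth inhibition of human U-2-OS cells, determined with a cell viability assay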
Description: SANGER: Inhibition of human U-2-OS cell growth in a cell viability assay.

[48] = system: YKG-1; format: functional, cell-based, Homo sapiens; conditions: Homo sapiens, YKG-1;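 also: cell growth inhibition, read out with a viability assay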
Description: SANGER: Inhibition of human YKG-1 cell growth in a cell viability assay.

[49] = system: no-10; format: functional, cell-based, Homo sapiens; conditions: Homo sapiens;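 also: growth inhibition of no-10 cells, read out with a cell viability assay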
Description: SANGER: Inhibition of human no-10 cell growth in a cell viability assay.

[50] = system: CHP-212; format: functional, cell-based, Homo sapiens; conditions: Homo sapiens, CHP-212
Description: SANGER: Inhibition of human CHP-212 cell growth in a cell viability assay.

CC(=O)O[C@@]12CO[C@@H]1C[C@H](O)[C@@]1(C)C(=O)[C@H](O)C3=C(C)[C@@H](OC(=O)[C@H](O)[C@@H](NC(=O)OC(C)(C)C)c4ccccc4)C[C@@](O)([C@@H](OC(=O)c4ccccc4)[C@H]21)C3(C)C [DOCETAXEL]
IC50 [1]: 4.47 nM
IC50 [2]: 1.69 nM
IC50 [3]: 1.78 nM
IC50 [4]: > 10 nM
IC50 [5]: 1.02 nM
IC50 [6]: 0.558 nM
IC50 [7]: 1.35 nM
IC50 [8]: 5.11 nM
IC50 [9]: 4.05 nM
IC50 [10]: > 10 nM
IC50 [11]: 2.47 nM
IC50 [12]: 3.99 nM
IC50 [13]: 0.84 nM
IC50 [14]: 6.24 nM
IC50 [15]: > 10 nM
IC50 [16]: > 10 nM
IC50 [17]: > 10 nM
IC50 [18]: > 10 nM
IC50 [19]: > 10 nM
IC50 [20]: > 10 nM
IC50 [21]: 5.05 nM
IC50 [22]: > 10 nM
IC50 [23]: 0.26 nM
IC50 [24]: 8.57 nM
IC50 [25]: 2.6 nM
IC50 [26]: 2.17 nM
IC50 [27]: > 10 nM
IC50 [28]: 3.68 nM
IC50 [29]: 5.45 nM
IC50 [30]: > 10 nM
IC50 [31]: > 10 nM
IC50 [32]: 4.07 nM
IC50 [33]: > 10 nM
IC50 [34]: 2.22 nM
IC50 [35]: > 10 nM
IC50 [36]: > 10 nM
IC50 [37]: 0.615 nM
IC50 [38]: 3.81 nM
IC50 [39]: 2.61 nM
IC50 [40]: > 10 nM
IC50 [41]: 6.44 nM
IC50 [42]: 5.07 nM
IC50 [43]: 2.25 nM
IC50 [44]: > 10 nM
IC50 [45]: > 10 nM
IC50 [46]: 9.1 nM
IC50 [47]: 1.75 nM
IC50 [48]: 0.707 nM
IC50 [49]: 7.88 nM
IC50 [50]: 0.73 nM
